Patent US11541028B2, “Peptide pharmaceuticals for treatment of NASH and other disorders” (Mederis Diabetes LLC, priority 2018, dated 2023)
pEC50: −log10 of the molar value. Bridge positions count the residues as written; N and C are the ends. Square brackets hold non-standard residues; d marks the D form. Peptide text beside a SMILES is read from it. * marks the point of attachment. Melibiouronoyl(1β-O-dodecyl) = CCCCCCCCCCCCO[C@@H]1O[C@H](CO[C@H]2O[C@H](C(=O)*)[C@H](O)[C@H](O)[C@H]2O)[C@@H](O)[C@H](O)[C@H]1O; X1 = CCCCCCCCCCCCCCCCO[C@@H]1O[C@H](CO[C@H]2O[C@H](C(=O)*)[C@H](O)[C@H](O)[C@H]2O)[C@@H](O)[C@H](O)[C@H]1O; X2 = CCCCCCCCCCCCCCO[C@@H]1O[C@H](CO[C@H]2O[C@H](C(=O)*)[C@H](O)[C@H](O)[C@H]2O)[C@@H](O)[C@H](O)[C@H]1O; GlcA(1β-O-tetradecyl) = CCCCCCCCCCCCCCO[C@@H]1O[C@H](C(=O)*)[C@@H](O)[C@H](O)[C@H]1O; Aib = CC(C)(N)C(=O)O

Experiments:
human glucagon receptor = molecular target: T1, human glucagon receptor (Homo sapiens, UniProt P47871); assay: DiscoveRx LeadHunter cellular assay, cAMP stimulation, glucagon receptor in CHO cells; format: cell-based
T1 construct: host or cells: CHO cells
T1 sequence (P47871 26-477): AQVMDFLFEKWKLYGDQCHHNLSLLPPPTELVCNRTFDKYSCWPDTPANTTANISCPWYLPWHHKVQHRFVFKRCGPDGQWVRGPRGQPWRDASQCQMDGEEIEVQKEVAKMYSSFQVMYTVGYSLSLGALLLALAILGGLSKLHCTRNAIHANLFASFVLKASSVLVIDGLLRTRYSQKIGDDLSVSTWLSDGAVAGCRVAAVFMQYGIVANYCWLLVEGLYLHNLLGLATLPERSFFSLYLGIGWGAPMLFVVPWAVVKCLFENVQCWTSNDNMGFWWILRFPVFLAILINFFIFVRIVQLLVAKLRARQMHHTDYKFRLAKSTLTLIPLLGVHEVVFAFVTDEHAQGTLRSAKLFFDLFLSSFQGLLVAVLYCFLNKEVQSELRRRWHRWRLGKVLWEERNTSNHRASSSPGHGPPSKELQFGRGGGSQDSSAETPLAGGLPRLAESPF
Description: (§1) A further series of cellular assays was carried out with standard cellular assays (DiscoveRx, LeadHunter assays) using readout of cAMP stimulation or arrestin activation. Compounds were weighed precisely in an amount of about 1 mg and shipped to DiscoveRx for dilution and assay.

human GLP-1 receptor = molecular target: T2, human GLP-1 receptor (Homo sapiens, UniProt P43220); assay: DiscoveRx LeadHunter cellular assay, cAMP stimulation, GLP-1 receptor in CHO cells; format: cell-based; details: human GLP-1 receptor in CHO cells (DiscoveRx); read-out: EC50 cAMP GLP-1 R
T2 construct: host or cells: CHO cells
T2 sequence (P43220 24-463): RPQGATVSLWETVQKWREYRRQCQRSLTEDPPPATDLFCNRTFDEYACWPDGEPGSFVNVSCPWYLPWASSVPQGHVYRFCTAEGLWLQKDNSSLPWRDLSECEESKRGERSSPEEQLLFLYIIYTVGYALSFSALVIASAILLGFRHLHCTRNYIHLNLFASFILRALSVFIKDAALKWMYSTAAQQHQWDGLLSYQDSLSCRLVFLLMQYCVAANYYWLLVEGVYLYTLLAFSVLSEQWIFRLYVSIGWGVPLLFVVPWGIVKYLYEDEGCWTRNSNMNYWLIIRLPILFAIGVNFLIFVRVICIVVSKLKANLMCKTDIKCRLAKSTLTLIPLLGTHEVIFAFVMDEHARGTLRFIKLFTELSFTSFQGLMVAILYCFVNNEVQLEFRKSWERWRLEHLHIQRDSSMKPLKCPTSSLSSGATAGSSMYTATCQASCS
Description: as §1

Structure (SMILES) | pEC50 (human glucagon receptor) | pEC50 (human GLP-1 receptor)
CCCCCCCCCCCCCCCCO[C@@H]1O[C@H](CO[C@H]2O[C@H](C(=O)NCCCC[C@H](NC(=O)[C@H](C)NC(=O)[C@H](C)NC(=O)[C@H](CCC(N)=O)NC(=O)[C@@H]3CCCCNC(=O)CC[C@H](NC(=O)[C@H](CO)NC(=O)[C@H](Cc4ccc(O)cc4)NC(=O)[C@H](CC(=O)O)NC(=O)[C@H](CO)NC(=O)[C@@H](NC(=O)[C@H](Cc4ccccc4)NC(=O)[C@@H](NC(=O)CNC(=O)[C@H](CCC(N)=O)NC(=O)C(C)(C)NC(=O)[C@@H](N)Cc4c[nH]cn4)[C@@H](C)O)[C@@H](C)O)C(=O)N[C@@H](Cc4ccc(O)cc4)C(=O)N[C@@H](CC(C)C)C(=O)N[C@@H](CC(=O)O)C(=O)N3)C(=O)N[C@@H](CCC(=O)O)C(=O)N[C@@H](Cc3ccccc3)C(=O)N[C@H](C(=O)N[C@@H](CCC(N)=O)C(=O)N[C@@H](Cc3c[nH]c4ccccc34)C(=O)N[C@@H](CC(C)C)C(=O)N[C@@H](CC(C)C)C(=O)N[C@@H](CCC(N)=O)C(=O)N[C@H](C(N)=O)[C@@H](C)O)[C@@H](C)CC)[C@H](O)[C@H](O)[C@H]2O)[C@@H](O)[C@H](O)[C@H]1O [EU-A1740] (H-H[Aib]QGTFTSDYSEYLDKQAAK(X1)EFIQWLLQT-NH2; lactam 12-16; N-terminus assumed) | 8.42 | 10.11
CCCCCCCCCCCCCCO[C@@H]1O[C@H](CO[C@H]2O[C@H](C(=O)NCCCC[C@H](NC(=O)[C@H](C)NC(=O)[C@H](C)NC(=O)[C@H](CCC(N)=O)NC(=O)[C@@H]3CCCCNC(=O)CC[C@H](NC(=O)[C@H](CO)NC(=O)[C@H](Cc4ccc(O)cc4)NC(=O)[C@H](CC(=O)O)NC(=O)[C@H](CO)NC(=O)[C@@H](NC(=O)[C@H](Cc4ccccc4)NC(=O)[C@@H](NC(=O)CNC(=O)[C@H](CCC(N)=O)NC(=O)C(C)(C)NC(=O)[C@@H](N)Cc4c[nH]cn4)[C@@H](C)O)[C@@H](C)O)C(=O)N[C@@H](Cc4ccc(O)cc4)C(=O)N[C@@H](CC(C)C)C(=O)N[C@@H](CC(=O)O)C(=O)N3)C(=O)N[C@@H](CCC(=O)O)C(=O)N[C@@H](Cc3ccccc3)C(=O)N[C@H](C(=O)N[C@@H](CCC(N)=O)C(=O)N[C@@H](Cc3c[nH]c4ccccc34)C(=O)N[C@@H](CC(C)C)C(=O)N[C@@H](CC(C)C)C(=O)N[C@@H](CCC(N)=O)C(=O)N[C@H](C(N)=O)[C@@H](C)O)[C@@H](C)CC)[C@H](O)[C@H](O)[C@H]2O)[C@@H](O)[C@H](O)[C@H]1O [EU-A1739] (H-H[Aib]QGTFTSDYSEYLDKQAAK(X2)EFIQWLLQT-NH2; lactam 12-16; N-terminus assumed) | 8.65 | 10.25
CCCCCCCCCCCCCCO[C@@H]1O[C@H](CO[C@H]2O[C@H](C(=O)N[C@@H](CCC(=O)NCCCC[C@H](NC(=O)[C@@H](NC(=O)[C@H](Cc3ccccc3)NC(=O)[C@H](CCC(=O)O)NC(=O)[C@@H]3CCCCNC(=O)CC[C@H](NC(=O)[C@H](CC(=O)O)NC(=O)[C@H](CC(C)C)NC(=O)[C@H](Cc4ccc(O)cc4)NC(=O)[C@H](CCCCN)NC(=O)[C@H](CO)NC(=O)[C@H](Cc4ccc(O)cc4)NC(=O)[C@H](CC(=O)O)NC(=O)[C@H](CO)NC(=O)[C@@H](NC(=O)[C@H](Cc4ccccc4)NC(=O)[C@@H](NC(=O)CNC(=O)[C@H](CCC(N)=O)NC(=O)C(C)(C)NC(=O)[C@@H](N)Cc4c[nH]cn4)[C@@H](C)O)[C@@H](C)O)C(=O)N[C@@H](CCC(N)=O)C(=O)N[C@@H](C)C(=O)N[C@@H](C)C(=O)N3)[C@@H](C)CC)C(=O)N[C@@H](Cc3c[nH]c4ccccc34)C(=O)N[C@@H](CC(C)C)C(=O)N[C@@H](CC(C)C)C(=O)N[C@@H](CCC(N)=O)C(=O)N[C@H](C(=O)O)[C@@H](C)O)C(=O)O)[C@H](O)[C@H](O)[C@H]2O)[C@@H](O)[C@H](O)[C@H]1O [EU-A1617] | 9.22 | 9.92
CCCCCCCCCCCCO[C@@H]1O[C@H](CO[C@H]2O[C@H](C(=O)NCCCC[C@H](NC(=O)[C@H](CC(=O)O)NC(=O)[C@H](CO)NC(=O)[C@@H](NC(=O)[C@H](Cc3ccccc3)NC(=O)[C@@H](NC(=O)CNC(=O)[C@H](CCC(N)=O)NC(=O)C(C)(C)NC(=O)[C@@H](N)Cc3c[nH]cn3)[C@@H](C)O)[C@@H](C)O)C(=O)N[C@@H](CO)C(=O)N[C@@H](CCCCN)C(=O)N[C@@H](Cc3ccc(O)cc3)C(=O)N[C@@H](CC(C)C)C(=O)N[C@@H](CC(=O)O)C(=O)N[C@H]3CCC(=O)NCCCC[C@@H](C(=O)N[C@@H](CCC(=O)O)C(=O)N[C@@H](Cc4ccccc4)C(=O)N[C@H](C(=O)N[C@@H](CCC(=O)O)C(=O)N[C@@H](Cc4c[nH]c5ccccc45)C(=O)N[C@@H](CC(C)C)C(=O)N[C@@H](CC(C)C)C(=O)N[C@@H](CCC(N)=O)C(=O)N[C@H](C(N)=O)[C@@H](C)O)[C@@H](C)CC)NC(=O)[C@H](C)NC(=O)[C@H](C)NC(=O)[C@H](CCC(N)=O)NC3=O)[C@H](O)[C@H](O)[C@H]2O)[C@@H](O)[C@H](O)[C@H]1O [EU-A1598] (H-H[Aib]QGTFTSDK(Melibiouronoyl(1β-O-dodecyl))SKYLDEQAAKEFIEWLLQT-NH2; lactam 16-20; N-terminus assumed) | 9.70 | 10.59
CCCCCCCCCCCCCCO[C@@H]1O[C@H](C(=O)NCCCC[C@@H]2NC(=O)[C@@H](NC(=O)[C@H](CC(=O)O)NC(=O)[C@H](CC(C)C)NC(=O)[C@H](Cc3ccc(O)cc3)NC(=O)[C@H](CCCCN)NC(=O)[C@H](CO)NC(=O)[C@H](Cc3ccc(O)cc3)NC(=O)[C@H](CC(=O)O)NC(=O)[C@H](CO)NC(=O)[C@@H](NC(=O)[C@H](Cc3ccccc3)NC(=O)[C@@H](NC(=O)CNC(=O)[C@H](CCC(N)=O)NC(=O)C(C)(C)NC(=O)[C@@H](N)Cc3c[nH]cn3)[C@@H](C)O)[C@@H](C)O)CCC(=O)NCCCC[C@@H](C(=O)N[C@@H](CCC(=O)O)C(=O)N[C@@H](Cc3ccccc3)C(=O)N[C@H](C(=O)N[C@@H](CCC(=O)O)C(=O)N[C@@H](Cc3c[nH]c4ccccc34)C(=O)N[C@@H](CC(C)C)C(=O)N[C@@H](CC(C)C)C(=O)N[C@@H](CCC(N)=O)C(=O)N[C@H](C(N)=O)[C@@H](C)O)[C@@H](C)CC)NC(=O)[C@H](C)NC(=O)[C@H](C)NC2=O)[C@@H](O)[C@H](O)[C@H]1O [EU-A1841] (H-H[Aib]QGTFTSDYSKYLDEK(GlcA(1β-O-tetradecyl))AAKEFIEWLLQT-NH2; lactam 16-20; N-terminus assumed) | 9.32 | 9.50
CCCCCCCCCCCCO[C@@H]1O[C@H](CO[C@H]2O[C@H](C(=O)NCCCC[C@H](NC(=O)[C@H](CC(=O)O)NC(=O)[C@H](CO)NC(=O)[C@@H](NC(=O)[C@H](Cc3ccccc3)NC(=O)[C@@H](NC(=O)CNC(=O)[C@H](CCC(N)=O)NC(=O)C(C)(C)NC(=O)[C@@H](N)Cc3c[nH]cn3)[C@@H](C)O)[C@@H](C)O)C(=O)N[C@@H](CO)C(=O)N[C@@H](CCCCN)C(=O)N[C@@H](Cc3ccc(O)cc3)C(=O)N[C@@H](CC(C)C)C(=O)N[C@@H](CC(=O)O)C(=O)N[C@H]3CCC(=O)NCCCC[C@@H](C(=O)N[C@@H](CCC(=O)O)C(=O)N[C@@H](Cc4ccccc4)C(=O)N[C@H](C(=O)N[C@@H](CCC(=O)O)C(=O)N[C@@H](Cc4c[nH]c5ccccc45)C(=O)N[C@@H](CC(C)C)C(=O)N[C@@H](CC(C)C)C(=O)N[C@@H](CCC(N)=O)C(=O)N[C@H](C(=O)O)[C@@H](C)O)[C@@H](C)CC)NC(=O)[C@H](C)NC(=O)[C@H](C)NC(=O)[C@H](CCC(N)=O)NC3=O)[C@H](O)[C@H](O)[C@H]2O)[C@@H](O)[C@H](O)[C@H]1O [EU-A1599] (H-H[Aib]QGTFTSDK(Melibiouronoyl(1β-O-dodecyl))SKYLDEQAAKEFIEWLLQT-OH; lactam 16-20; N-terminus assumed) | 9.50 | 10.21
CCCCCCCCCCCCCCO[C@@H]1O[C@H](C(=O)NCCCC[C@H](NC(=O)[C@H](C)NC(=O)[C@H](C)NC(=O)[C@H](CCC(N)=O)NC(=O)[C@H](CO)NC(=O)[C@H](CC(=O)O)NC(=O)[C@@H]2CCCCNC(=O)CC[C@H](NC(=O)[C@H](CC(=O)O)NC(=O)[C@H](CO)NC(=O)[C@@H](NC(=O)[C@H](Cc3ccccc3)NC(=O)[C@@H](NC(=O)CNC(=O)[C@H](CCC(N)=O)NC(=O)C(C)(C)NC(=O)[C@@H](N)Cc3c[nH]cn3)[C@@H](C)O)[C@@H](C)O)C(=O)N[C@@H](CO)C(=O)N[C@@H](CCCCN)C(=O)N[C@@H](Cc3ccc(O)cc3)C(=O)N2)C(=O)N[C@@H](CCC(=O)O)C(=O)N[C@@H](Cc2ccccc2)C(=O)N[C@H](C(=O)N[C@@H](CCC(N)=O)C(=O)N[C@@H](Cc2c[nH]c3ccccc23)C(=O)N[C@@H](CC(C)C)C(=O)N[C@@H](CC(C)C)C(=O)N[C@@H](CCC(N)=O)C(=O)N[C@H](C(N)=O)[C@@H](C)O)[C@@H](C)CC)[C@@H](O)[C@H](O)[C@H]1O [EU-A1734] (H-H[Aib]QGTFTSDESKYKDSQAAK(GlcA(1β-O-tetradecyl))EFIQWLLQT-NH2; lactam 10-14; N-terminus assumed) | 9.41 | 11.22
CCCCCCCCCCCCO[C@@H]1O[C@H](C(=O)NCCCC[C@H](NC(=O)[C@@H](NC(=O)[C@H](Cc2ccccc2)NC(=O)[C@H](CCC(=O)O)NC(=O)[C@@H]2CCCCNC(=O)CC[C@H](NC(=O)[C@H](CC(=O)O)NC(=O)[C@H](CC(C)C)NC(=O)[C@H](Cc3ccc(O)cc3)NC(=O)[C@H](CCCCN)NC(=O)[C@H](CO)NC(=O)[C@H](Cc3ccc(O)cc3)NC(=O)[C@H](CC(=O)O)NC(=O)[C@H](CO)NC(=O)[C@@H](NC(=O)[C@H](Cc3ccccc3)NC(=O)[C@@H](NC(=O)CNC(=O)[C@H](CCC(N)=O)NC(=O)C(C)(C)NC(=O)[C@@H](N)Cc3c[nH]cn3)[C@@H](C)O)[C@@H](C)O)C(=O)N[C@@H](CCC(N)=O)C(=O)N[C@@H](C)C(=O)N[C@@H](C)C(=O)N2)[C@@H](C)CC)C(=O)N[C@@H](Cc2c[nH]c3ccccc23)C(=O)N[C@@H](CC(C)C)C(=O)N[C@@H](CC(C)C)C(=O)N[C@@H](CCC(N)=O)C(=O)N[C@H](C(=O)O)[C@@H](C)O)[C@@H](O)[C@H](O)[C@H]1O [EU-A1681] | 9.88 | 11.05
